Experimental data reported in patent publication US12648924B2, “Prevention and treatment of effects of aging and age-associated disorders with ketone supplementation” (priority 2020, dated 2026).

Assays:
[1] = Blood glucose and ketones after single KDE gavage at various dosages (Experiment 5a); format: in vivo, VM/Dk mice; settings: vs timepoint 0
Experimental: Metabolic Biomarkers: Blood glucose and R β-hydroxybutyrate were measured using Precision Xtra™ Blood Glucose & Ketone Monitoring System (Abbott Laboratories, Abbott Park, IL). Blood lactate concentration was measured using Lactate Plus Lactate Meter (Nova Biomedical). IGF-1 and Insulin were relabeled for blinded analysis and subsequently analyzed using Luminex 100 system (Luminex, Austin, TX) with R&D Systems Mouse 1-Plex Luminex Assay (R&D Systems, Minneapolis, MN) and Milliplex Mouse Multiplex Kit (Millipore, St. Charles, MO), respectively, using manufacturer's protocol.
Ketone Diester Mitigates Bodyweight Loss and Comorbidities in Inflammation-Induced Atrophy: Reductions in anorexia, tumor burden, and skeletal muscle atrophy all present ideal outcomes in the clinical environment of CACS. It should be noted, however, that altered anorexia and tumor burden can confound interpretation of the direct effects of the KDE on skeletal muscle atrophy. […] Due to the rapid nature of LPS-induced atrophy, various dosages of KDE were gavaged to determine their ability to rapidly shift systemic metabolism. […] To determine KDE's effect on cancer-independent catabolism, a maximal non-fatal LPS dose (10 mg/kg) was administered, followed by a single 4 mL/kg water (LPS) or KDE (KDE+LPS) gavage. KDE attenuated bodyweight loss 47% within the first 24 hours post-LPS administration (FIG. 7B).

[2] = tested on: VM-M3 cells; assay: KDE in VM-M3 model of cancer anorexia cachexia syndrome (Experiment 4c); format: in vivo, VM/Dk mice; settings: 30% KDE in diet
Source text: Animals: Five breeding pairs of the VM/Dk strain of mice were used to establish and propagate a VM/Dk mouse colony in the University of South Florida (USF) Morsani College of Medicine Vivarium according to standard husbandry protocol. Male and female VM/Dk mice between 10-23 weeks of age were singly housed to accurately assess individual animal food intake. Bodyweight and food intake were tracked daily prior to and post-social isolation to ensure bodyweight and food intake normalized prior to cell inoculation (Table 1). Animals were distributed into one of four groups: Sham Male (SH-M), Sham Female (SH-F), Cancer Male (CA-M), and Cancer Female (CA-F). Each cancer animal was matched with a sham animal of equivalent sex, bodyweight, age, and food intake (FIGS. 8A-8B) to ensure appropriate cancer and sex-specific comparisons. To determine KDE-induced effects in CACS, VM/Dk animals were distributed into one of three groups: KDE+VM-M3, VM-M3, and Sham with equivalent sex, bodyweight, age and food intake at baseline (FIG. 13A). One premature death occurred in SH-F (Experiment 1a) and Sham (Experiment 4c) groups immediately post-inoculation. To determine KDE-induced effects post-LPS administration, VM/Dk animals were distributed into two groups (FIGS. 14A-14B): KDE+LPS and LPS of equivalent bodyweights. All procedures were approved by the USF Institutional Animal Care and Use Committee (USF IACUC; Protocol Number R1900 & R5829) and performed under strict adherence to the NIH Guide for the Care and Use of Laboratory Animals.
VM-M3 Cell and Lipopolysaccharide Implantation: For VM-M3 implantation in the model characterization experiments (FIG. 1-5; FIG. 8-12), ˜1×10^6 VM-M3 cells (T. Seyfried, Boston College) in 300 μL sterile PBS (CA-M and CA-F) or 300 μL sterile PBS-only (SH-M and SH-F) were injected subcutaneously into the left abdominal flank resulting in primary tumor formation at the injection site, and subsequently systemically metastasizes to most major organs, namely the liver, kidneys, spleen, lungs, and brain. […] This method of implantation further minimized variability in markers of tumor progression, and therefore provides a useful optional method technique in the VM-M3 model for efficient analysis of potential therapeutic agents. To determine KDE-induced effects on CACS, 1×10^6 VM-M3 cells in 300 μL sterile PBS (KDE+VM-M3 and VM-M3) or 300 μL sterile PBS-only (Sham) were administered intraperitoneally (FIG. 6; FIG. 13). For LPS administration in the septic atrophy model, LPS (Escherichia coli 055:B5; L2880; Sigma-Aldrich, St. Louis, MO) was diluted in sterile PBS and administered intraperitoneally at 10 mg/kg as pilot work indicated a maximal, yet non-fatal, ˜15% bodyweight reduction at 10 mg/kg dose.
Tumor Growth and Metastasis: Tumor growth was monitored weekly as a measure of bioluminescence using the Xenogen IVIS Spectrum system (Caliper LS, Hopkinton, MA). Data acquisition and analysis was performed using the Living Image@ software (Caliper LS). Approximately 15 minutes prior to in vivo imaging, VM/Dk mice received an intraperitoneal injection of D-Luciferin (50 mg/kg; 88293, Thermo Fisher Scientific; Waltham, MA). Bioluminescent signal was obtained using the IVIS Lumina cooled CCD camera system in both prone and supine positions. As only the cancer cells were transfected with the luciferase gene, bioluminescent signal (photons/sec) of the whole animal was measured and tracked over time as an indicator of tumor burden and metastatic spread. At EOL, primary tumor, spleen, liver, and adipose tissue were gathered and saturated with D-Luciferin (10 μL D-Luciferin+PBS/g tissue at 5 mg D-Luciferin/mL PBS dilution) for 5 mins and imaged to determine tumor burden. Ascites fluid was imaged 15 minutes after resuspension with D-Luciferin (20 μL D-Luciferin+PBS/mL ascites fluid at 5 mg D-Luciferin/mL PBS dilution) to assess presence of circulating tumor cells. […]

[3] = weekly, KDE+VM-M3 vs VM-M3 and Sham

CC(=O)CC(=O)OCCC(C)OC(=O)CC(C)=O (centres unmarked) [KDE, R/S 1,3-butanediol acetoacetate diester]
blood glucose ([1]; 4 mL/kg KDE gavage): significant and rapid reductions
blood ketones ([1]; 4 mL/kg KDE gavage): elevations in blood ketones
blood glucose ([1]; 5 mL/kg KDE gavage): significant and rapid reductions
blood ketones ([1]; 5 mL/kg KDE gavage): elevations in blood ketones
blood lactate ([2]; KDE+VM-M3 vs VM-M3): No difference
food intake (anorexic phenotype) ([2]; KDE+VM-M3 vs VM-M3): attenuation of the predicted anorexic phenotype
bodyweight ([2]; daily, KDE+VM-M3 vs VM-M3 and Sham): lower bodyweight
ascites fluid weight ([2]; week 3, KDE+VM-M3 group (VM-M3 alone 3.0 g, Sham 0 g)): 1.9 g
ascites fluid (surrogate marker of metastatic spread) ([2]; week 3, KDE+VM-M3 vs VM-M3): significantly reduced
intraperitoneal adipose tissue weight (adipose tissue catabolism) ([2]; week 3, KDE+VM-M3 vs VM-M3): unable to alter adipose tissue catabolism
serum IGF-1 ([2]; week 3, KDE+VM-M3 vs VM-M3): did not alter circulating anabolic hormone levels
serum insulin ([2]; week 3, KDE+VM-M3 vs VM-M3): did not alter circulating anabolic hormone levels
skeletal muscle atrophy (Gastrocnemius, Soleus, Quadricep, Tibialis Anterior, Hind Limb weights) ([2]; week 3, KDE+VM-M3 vs VM-M3): did attenuate muscle atrophy
cardiac tissue weight set to baseline bodyweight ([2]; week 3, across groups): unaltered
whole animal tumor burden (in vivo bioluminescence) ([2]; weekly imaging, KDE+VM-M3 vs VM-M3): non-significant reductions
blood glucose [2, 3]: reductions in blood glucose
circulating ketones [2, 3]: sustained elevations
